Results: US9968694B2, “Compositions and methods for non-invasive imaging” (MERRIMACK PHARMACEUTICALS, INC., priority 2012, dated 2018)
Where two headings read alike, the source gives them in different places.

Legend:
[1] = Cu complex formation in HS buffer (appearance, precipitation); format: physicochemical; conditions: 0.1 mM chelator and Cu in HS buffer pH 6.5
Experimental: Cu:4-DEAP-ATSC and Cu:ATSM complexes were formed as follows. In 1 mL HS were added 5 μL of 20 mM CuSO4 and 5 μl of 20 mM 4-DEAP-ATSC (in DMSO) or 5 μL of 20 mM ATSM (in DMSO). […] The chelator and Cu concentration was 0.1 mM.

[2] = over several weeks, cited from earlier work
[3] = Storage stability of 4-DEAP-ATSC formulations (degradation); format: physicochemical
Experimental: Various 4-DEAP-ATSC formulations (see Table 10 below) were stored under different conditions. At designated time points, samples were collected where their storage stability were evaluated by functional readouts.
4-DEAP-ATSC was formulated in citrate buffer in a range of pH (pH 4-7). […] At a pH of between 6 and 7, the rates of degradation were very similar, with less than 15% degradation observed over a 4-month period when stored at −20° C. or 4° C.
4-DEAP-ATSC formulated in citrate buffer was stored at 4 different temperatures (−20° C., 4° C., 30° C., and 37° C.). […] (>60%) over a 1-month period. On the other hand, 4-DEAP-ATSC formulations stored at −20° C. and 4° C. can be stably preserved with less than 15% of degradation detected over a period of 4 months.
Various 4-DEAP-ATSC formulations were lyophilized and stored under different conditions to study the effect of lyophilization on their storage stability. […] In addition, mannitol was added to the formulation to serve as a bulking agent for lyophilization.
A set of 4-DEAP-ATSC formulations was filled with argon as an alternative means to improve storage stability of the liquid formulations. […] Significant degradation was still detected in formulations stored at elevated temperatures (30° C. and 37° C.). Additionally, storage stability of inert gas-filled lyophilized formulations was similar to air-filled lyophilized formulations (FIG. 19F).

[4] = ^64Cu chelation efficiency of 4-DEAP-ATSC by instant thin layer chromatography (ITLC); format: physicochemical
Excerpt: […] An instant thin layer chromatography (ITLC) assay was used for quantifying the fractions of uncomplexed ^64Cu and ^64Cu(II)-4-DEAP-ATSC complex in the chelation mixture. The uncomplexed ^64Cu can be detected at the solvent front, while the ^64Cu(II)-4-DEAP-ATSC complex remained at the origin where the sample is spotted.

[5] = Efficiency of ^64Cu:4-DEAP-ATSC loading into liposomes, size exclusion chromatography; format: physicochemical
Experimental: The efficiency of liposome loading for Step 2 (see FIG. 3) was determined. […] Encapsulated (liposomal) radioactivity was separated from total radioactivity using size exclusion chromatography. From this it was determined that >90% of the ^64Cu was loaded into the liposome at 4-DEAP-ATSC:lipid ratios <2 mol % as shown in Table 2.

## CNC(=S)NN=C(C)C(C)=NNC(=S)NC [ATSM, diacetyl 4-methylthiosemicarbazone, reference compound]
[1]
  appearance of Cu complex sample: became turbid and developed a brown precipitate

## [Cu] [copper]
[2]; 65 kg adult
  Toxic dose levels: ~154 µg/kg
[2]
  Toxic dose levels: > 10 mg/person/day

## CCN(CC)CCCNC(=S)NN=C(C)C(C)=NNC(=S)NCCCN(CC)CC [Sample 4-DEAP-ATSC, diacetyl 4,4′bis (3-(N,N-diethylamino)propyl)thiosemicarbazone]
[3]; citrate buffer pH between 6 and 7, 4-month period, stored at −20° C. or 4° C.
  degradation: less than 15%
[3]; citrate buffer, stored at 30° C. and 37° C., 1-month period
  degradation: > 60%
[3]; citrate buffer, stored at −20° C. and 4° C., period of 4 months
  degradation: less than 15%
[3]; liquid formulations filled with argon
  effect of inert gas atmosphere on storage stability: did not improve storage stability
[3]; lyophilized formulations
  effect of lyophilization on storage stability: effective method to inhibit degradation
[3]; mannitol as bulking agent for lyophilization
  effect of mannitol on storage stability: no effect on the storage stability
[4]; Specific Radioactivity 0.01 mCi/nmol
  Chelation Efficiency: 11-46%
[4]; Specific Radioactivity 0.04 mCi/nmol
  Chelation Efficiency: 98%
[4]; Specific Radioactivity 0.07 mCi/nmol
  Chelation Efficiency: 68-97%
[4]; Specific Radioactivity 0.08 mCi/nmol
  Chelation Efficiency: 99%
[4]; Specific Radioactivity 0.09 mCi/nmol
  Chelation Efficiency: 99%
[4]; Specific Radioactivity 0.1 mCi/nmol
  Chelation Efficiency: 99-100%
[4]; Specific Radioactivity 0.15 mCi/nmol
  Chelation Efficiency: 98-99%
[4]; Specific Radioactivity 0.17 mCi/nmol
  Chelation Efficiency: 96%
[4]; Specific Radioactivity 0.18 mCi/nmol
  Chelation Efficiency: 94%
[4]; Specific Radioactivity 0.2 mCi/nmol
  Chelation Efficiency: 96-99%
[4]; Specific Radioactivity 0.3 mCi/nmol
  Chelation Efficiency: 98%
[4]; Specific Radioactivity 0.65 mCi/nmol
  Chelation Efficiency: 99%
[4]; Specific Radioactivity 13.1 mCi/nmol
  Chelation Efficiency: 99%
[4]; specific radioactivities ranging from 0.07-0.3 mCi/nmol
  efficiency of chelation: 94-99%
[1]
  appearance of Cu complex sample: remained clear, without any signs of precipitation
[5]; 4-DEAP-ATSC:Lipid Ratio 0.01% (mol %)
  ^64Cu Loading Efficiency: 96-98%
[5]; 4-DEAP-ATSC:Lipid Ratio 0.04% (mol %)
  ^64Cu Loading Efficiency: 96-98%
[5]; 4-DEAP-ATSC:Lipid Ratio 0.10% (mol %)
  ^64Cu Loading Efficiency: 95-97%
[5]; 4-DEAP-ATSC:Lipid Ratio 0.15% (mol %)
  ^64Cu Loading Efficiency: 92-97%
[5]; 4-DEAP-ATSC:Lipid Ratio 0.25% (mol %)
  ^64Cu Loading Efficiency: 92-97%
[5]; 4-DEAP-ATSC:Lipid Ratio 0.40% (mol %)
  ^64Cu Loading Efficiency: 94-98%
[5]; 4-DEAP-ATSC:Lipid Ratio 0.50% (mol %)
  ^64Cu Loading Efficiency: 92-96%
[5]; 4-DEAP-ATSC:Lipid Ratio 0.67% (mol %)
  ^64Cu Loading Efficiency: 96%
[5]; 4-DEAP-ATSC:Lipid Ratio 0.75% (mol %)
  ^64Cu Loading Efficiency: 92%
[5]; 4-DEAP-ATSC:Lipid Ratio 1% (mol %)
  ^64Cu Loading Efficiency: 93-98%
[5]; 4-DEAP-ATSC:Lipid Ratio 2% (mol %)
  ^64Cu Loading Efficiency: 91-97%
[5]; 4-DEAP-ATSC:Lipid Ratio 4.20% (mol %)
  ^64Cu Loading Efficiency: 86%
[5]; 4-DEAP-ATSC:Lipid Ratio 5.00% (mol %)
  ^64Cu Loading Efficiency: 92-93%
[5]; 4-DEAP-ATSC:Lipid Ratio 10% (mol %)
  ^64Cu Loading Efficiency: 82-92%
[5]; 4-DEAP-ATSC:Lipid Ratio 25% (mol %)
  ^64Cu Loading Efficiency: 90%
[5]; 4-DEAP-ATSC:Lipid Ratio 50% (mol %)
  ^64Cu Loading Efficiency: 71%
[5]; 4-DEAP-ATSC:lipid ratios <2 mol %
  ^64Cu loaded into the liposome: > 90%
